Laboratory results as given in article PMC6792352, “Limited Chemical Structural Diversity Found to Modulate Thyroid Hormone Receptor in the Tox21 Chemical Library” (Environmental Health Perspectives, 2019).
Where a name gives a salt, the structure may show the parent alone.

Assay: in vitro
Details: rat, gh3-tre-luc cells

| Structure (SMILES) | CC50 at 24 h (AC50 (uM) modified / 1000) | further results |
| --- | --- | --- |
| O=[N+]([O-])c1ccc(Oc2ccc(C(F)(F)F)cc2[N+](=O)[O-])cc1 [Fluorodifen] | – | CC50 at 24 h (AC50 (uM) modified / 1000, Tox21_110001=Tox21_301354, viability, 1 nM T3 present, 24 h): > 90 µM |
| CCOC(=O)COC(=O)c1cc(Oc2ccc(C(F)(F)F)cc2Cl)ccc1[N+](=O)[O-] [Fluoroglycofen-ethyl] | > 90 µM | – |
| CO/N=C(/C1=NOCCO1)c1ccccc1Oc1ncnc(Oc2ccccc2Cl)c1F [Fluoxastrobin] | 32.7 µM | – |
| CNCCC(Oc1ccc(C(F)(F)F)cc1)c1ccccc1 (centres unmarked) [Fluoxetine hydrochloride] | 10.3 µM | – |
| C[C@]1(O)CC[C@H]2[C@@H]3CCC4=CC(=O)CC[C@]4(C)[C@@]3(F)[C@@H](O)C[C@@]21C [Fluoxymestrone] | – | CC50 at 24 h (AC50 (uM) modified / 1000, Tox21_110001=Tox21_113158, viability, 1 nM T3 present, 24 h): > 50 µM; CC50 at 24 h (AC50 (uM) modified / 1000, Tox21_110001=Tox21_200854, viability, 1 nM T3 present, 24 h): > 90 µM |
| CN1CCN(C2=Nc3cc(F)ccc3Cc3ccccc32)CC1 [Fluperlapine] | 11.9 µM | – |
| OCCN1CCN(CCCN2c3ccccc3Sc3ccc(C(F)(F)F)cc32)CC1 [Fluphenazine] | 5.76 µM | – |
| CCOC(=O)Nc1ccc(NCc2ccc(F)cc2)nc1N [Flupirtine maleate] | > 50 µM | – |
| C=C1C[C@H]2[C@@H]3CCC4=CC(=O)C=C[C@]4(C)[C@@]3(F)[C@@H](O)C[C@]2(C)[C@@]1(O)C(=O)COC(C)=O [Fluprednidene acetate] | > 50 µM | – |
| C[C@]12C=CC(=O)C=C1[C@@H](F)C[C@@H]1[C@@H]2[C@@H](O)C[C@@]2(C)[C@H]1CC[C@]2(O)C(=O)CO [Fluprednisolone] | > 50 µM | – |
| CCN(CC)CCN1C(=O)CN=C(c2ccccc2F)c2cc(Cl)ccc21 [Flurazepam] | 23.1 µM | – |
| CC(=O)OC(C)OC(=O)C(C)c1ccc(-c2ccccc2)c(F)c1 (centres unmarked) [Flurbiprofen axetil] | > 50 µM | – |
| COC(=O)C1(O)c2ccccc2-c2ccccc21 [Flurenol-methyl] | – | CC50 at 24 h (AC50 (uM) modified / 1000, Tox21_110001=Tox21_301428, viability, 1 nM T3 present, 24 h): > 90 µM |
| O=C1C(Cl)C(CCl)CN1c1cccc(C(F)(F)F)c1 (centres unmarked) [Flurochloridone] | > 90 µM | – |
| NP(N)(=O)NC(=O)c1ccc(F)cc1 [Flurofamide] | > 50 µM | – |
| CC(=O)O[C@]1(C(C)=O)CC[C@H]2[C@@H]3CCC4=CC(=O)CC[C@]4(C)[C@@]3(F)[C@@H](O)C[C@@]21C [Flurogestone acetate] | > 50 µM | – |
| FC(F)(F)COCC(F)(F)F [Flurothyl] | > 50 µM | – |
| CCCCCCC(C)OC(=O)COc1nc(F)c(Cl)c(N)c1Cl (centres unmarked) [Fluroxypyr-meptyl] | 51.1 µM | – |
| Nc1c(Cl)c(F)nc(OCC(=O)O)c1Cl [Fluroxypyr] | > 90 µM | – |
| CC(C)C(O)(c1ccc(OC(F)(F)F)cc1)c1cncnc1 (centres unmarked) [Flurprimidol] | > 90 µM | – |
| C[Si](Cn1cncn1)(c1ccc(F)cc1)c1ccc(F)cc1 [Flusilazole] | > 90 µM | – |
| O=C1NCN(c2ccccc2)C12CCN(CCCC(c1ccc(F)cc1)c1ccc(F)cc1)CC2 [Fluspirilene] | 4.02 µM | – |
| CC(C)C(=O)Nc1ccc([N+](=O)[O-])c(C(F)(F)F)c1 [Flutamide] | 88.9 µM | – |
| COC(=O)CSc1cc(/N=c2\sc(=O)n3n2CCCC3)c(F)cc1Cl [Fluthiacet-methyl] | > 90 µM | – |
| CCC(=O)O[C@]1(C(=O)SCF)[C@H](C)C[C@H]2[C@@H]3C[C@H](F)C4=CC(=O)C=C[C@]4(C)[C@@]3(F)[C@@H](O)C[C@@]21C [Fluticasone propionate] | > 20 µM | – |
| CC(C)Oc1cccc(NC(=O)c2ccccc2C(F)(F)F)c1 [Flutolanil] | > 90 µM | – |
| OC(Cn1cncn1)(c1ccc(F)cc1)c1ccccc1F (centres unmarked) [Flutriafol] | > 90 µM | – |

| Structure (SMILES) | CC50 at 24 h (AC50 (uM) modified / 1000) | further results |
| --- | --- | --- |
| C[N+]1(CCF)[C@@H]2CC[C@H]1CC(OC(=O)C(O)(c1ccccc1)c1ccccc1)C2 (some centres unmarked) [Flutropium bromide] | > 50 µM | – |
| CC(C)[C@H](Nc1ccc(C(F)(F)F)cc1Cl)C(=O)OC(C#N)c1cccc(Oc2ccccc2)c1 (some centres unmarked) [Fluvalinate] | > 90 µM | – |
| COCCCC/C(=N\OCCN)c1ccc(C(F)(F)F)cc1 [Fluvoxamine] | 15 µM | – |
| FC(F)(F)C(=NOCC1OCCO1)c1ccc(Cl)cc1 [Fluxofenim] | > 90 µM | – |
| Nc1nc2ncc(CNc3ccc(C(=O)N[C@@H](CCC(=O)O)C(=O)O)cc3)nc2c(=O)[nH]1 [Folic acid] | > 90 µM | – |
| CS(=O)(=O)NC(=O)c1cc(Oc2ccc(C(F)(F)F)cc2Cl)ccc1[N+](=O)[O-] [Fomesafen] | > 90 µM | – |
| CN(CC(=O)N1CCOCC1)Cc1c(Cl)cccc1NC(=O)c1ccccc1 [Fominoben hydrochloride] | > 50 µM | – |
| c1ccc(OCc2ccc(CCCN3CCOCC3)cc2)cc1 [Fomocaine] | 16.1 µM | – |
| CC(CN1c2ccccc2Sc2ccc(S(=O)(=O)N(C)C)cc21)N(C)C (centres unmarked) [Fonazine] | 21.4 µM | – |
| O=C(Nc1ccccc1)Nc1ccnc(Cl)c1 [Forchlorfenuron] | 64.7 µM | – |
| C=O [Formalin] | > 100 µM | – |
| NC=O [Formamide] | > 100 µM | – |
| O=CNc1ccccc1 [Formanilide] | > 90 µM | – |
| CNC(=O)Oc1cccc(N=CN(C)C)c1 [Formetanate hydrochloride] | – | CC50 at 24 h (AC50 (uM) modified / 1000, Tox21_110001=Tox21_300778, viability, 1 nM T3 present, 24 h): > 90 µM |
| CC(Cc1ccccc1)NC=O (centres unmarked) [Formetorex] | – | CC50 at 24 h (AC50 (uM) modified / 1000, Tox21_110001=Tox21_111794, viability, 1 nM T3 present, 24 h): > 50 µM |
| O=CO [Formic acid, potassium salt] | > 5 µM | – |
| COc1ccc(-c2coc3cc(O)ccc3c2=O)cc1 [Formononetin] | > 90 µM | – |
| COc1ccc(C[C@H](C)NC[C@@H](O)c2ccc(O)c(NC=O)c2)cc1 [Formoterol hemifumarate dihydrate] | > 50 µM | – |
| COc1ccc(C[C@@H](C)NC[C@H](O)c2ccc(O)c(NC=O)c2)cc1 [Formoterol hemifumarate] | > 50 µM | – |
| C=C[C@@]1(C)CC(=O)[C@]2(O)[C@@]3(C)[C@@H](O)CCC(C)(C)[C@@H]3[C@H](O)[C@H](OC(C)=O)[C@@]2(C)O1 [Forskolin] | > 90 µM | – |
| CCOP(=O)(O)C(N)=O [Fosamine ammonium] | – | CC50 at 24 h (AC50 (uM) modified / 1000, Tox21_110001=Tox21_301917, viability, 1 nM T3 present, 24 h): > 90 µM |
| CC(C)CN(C[C@@H](OP(=O)(O)O)[C@H](Cc1ccccc1)NC(=O)O[C@H]1CCOC1)S(=O)(=O)c1ccc(N)cc1 [Fosamprenavir calcium] | > 50 µM | – |
| O=C(O)P(=O)(O)O [Foscarnet trisodium] | > 50 µM | – |
| NNC(=O)CP(=O)(c1ccccc1)c1ccccc1 [Fosenazide] | > 50 µM | – |
| O=P(O)(O)OC(Cn1cncn1)(Cn1cncn1)c1ccc(F)cc1F [Fosfluconazole] | > 50 µM | – |
| C[C@@H]1O[C@@H]1P(=O)(O)O [Fosfomycin calcium] | > 50 µM | – |
| CCC(=O)O[C@@H](O[P@](=O)(CCCCc1ccccc1)CC(=O)N1C[C@H](C2CCCCC2)C[C@H]1C(=O)O)C(C)C [Fosinopril sodium] | > 50 µM | – |

| Structure (SMILES) | CC50 at 24 h (AC50 (uM) modified / 1000) | further results |
| --- | --- | --- |
| CCOP(=O)(SC(C)CC)N1CCSC1=O (centres unmarked) [Fosthiazate] | – | CC50 at 24 h (AC50 (uM) modified / 1000, Tox21_110001=Tox21_301059, viability, 1 nM T3 present, 24 h): > 90 µM |
| C1CN(P2(N3CC3)=NP(N3CC3)(N3CC3)=NP(N3CC3)(N3CC3)=N2)CCO1 (centres unmarked) [Fotretamine] | > 50 µM | – |
| COc1ccc2nc(NC(=O)Nc3ccccc3)sc2c1 [Frentizole] | > 50 µM | – |
| C[C@@H](O)[C@H]1C(=O)N2C(C(=O)O)=C([C@H]3CCCO3)S[C@H]12 [Fropenem] | > 50 µM | – |
| CN[C@@H]1CCc2[nH]c3ccc(C(N)=O)cc3c2C1 [Frovatriptan Succinate monohydrate] | > 50 µM | – |
| Cc1cccc(C)c1NC(=O)c1ccccc1C(=O)O [Ftaxilide] | > 50 µM | – |
| CN1CCN(CCC(=O)N2c3ccccc3Sc3ccc(C(F)(F)F)cc32)CC1 [Ftormetazine] | 25.8 µM | – |
| O=C(CCN1CCN(CCO)CC1)N1c2ccccc2Sc2ccc(C(F)(F)F)cc21 [Ftorpropazine] | 16.3 µM | – |
| c1coc(-c2nc3ccccc3[nH]2)c1 [Fuberidazole] | > 90 µM | – |
| N[C@@H](CSCCCO)C(=O)O [Fudosteine] | > 50 µM | – |
| O=C(O)/C=C/C(=O)O [Fumaric acid] | > 100 µM | – |
| N#C/C=C/C#N [Fumaronitrile] | – | CC50 at 24 h (AC50 (uM) modified / 1000, Tox21_110001=Tox21_201151, viability, 1 nM T3 present, 24 h): 49.9 µM |
| O=C(Cl)/C=C/C(=O)Cl [Fumaryl chloride] | > 90 µM | – |
| Cc1nc2c([nH]1)c(=O)n(C)c(=O)n2Cc1ccco1 [Furafylline] | > 50 µM | – |
| COC(=O)C(C)N(C(=O)c1ccco1)c1c(C)cccc1C (centres unmarked) [Furalaxyl] | > 90 µM | – |
| O=C1OC(CN2CCOCC2)CN1/N=C/c1ccc([N+](=O)[O-])o1 (centres unmarked) [Furaltadone hydrochloride] | > 20 µM | – |
| c1ccoc1 [Furan] | > 90 µM | – |
| C[C@]12Cc3nonc3C[C@@H]1CC[C@@H]1[C@@H]2CC[C@@]2(C)[C@H]1CC[C@]2(C)O [Furazabol] | – | CC50 at 24 h (AC50 (uM) modified / 1000, Tox21_110001=Tox21_112772, viability, 1 nM T3 present, 24 h): 25.2 µM |
| O=C(O)c1cc2cc(Cc3cccnc3)ccc2o1 [Furegrelate sodium] | > 50 µM | – |
| CC(=O)C=Cc1ccco1 [Furfural acetone] | > 100 µM | – |
| O=Cc1ccco1 [Furfural] | > 90 µM | – |
| CC(=O)OCc1ccco1 [Furfuryl acetate] | > 90 µM | – |
| OCc1ccco1 [Furfuryl alcohol] | > 90 µM | – |
| CC(C)SCc1ccco1 [Furfuryl isopropyl sulfide] | > 40 µM | – |
| CCCCc1ccc(C(=O)O)nc1 [Fusaric acid] | – | CC50 at 24 h (AC50 (uM) modified / 1000, Tox21_110001=Tox21_110149, viability, 1 nM T3 present, 24 h): > 50 µM |
